Values joined by “and” are separate entries in the source; they are usually repeats but may differ in a detail not shown here. Equal values may be shown once. Each block holds one molecule with its values, some of them ahead of it.
Tests used:
[1] = biological target: T1, ETA (rabbit renal artery vascular smooth muscle cells) (Oryctolagus cuniculus, UniProt A5A8K3); assay: Endothelin receptor binding assay-A (ERBA-A), intact cell binding of [125I]-ET-1; conditions: for IC50: rabbit renal artery vascular smooth muscle cells, [125I]-ET-1 25 pM
T1 construct: The cells used were rabbit renal artery vascular smooth muscle cells; endogenous in cells; host or cells: rabbit renal artery vascular smooth muscle cells
T1 sequence (A5A8K3 21-427): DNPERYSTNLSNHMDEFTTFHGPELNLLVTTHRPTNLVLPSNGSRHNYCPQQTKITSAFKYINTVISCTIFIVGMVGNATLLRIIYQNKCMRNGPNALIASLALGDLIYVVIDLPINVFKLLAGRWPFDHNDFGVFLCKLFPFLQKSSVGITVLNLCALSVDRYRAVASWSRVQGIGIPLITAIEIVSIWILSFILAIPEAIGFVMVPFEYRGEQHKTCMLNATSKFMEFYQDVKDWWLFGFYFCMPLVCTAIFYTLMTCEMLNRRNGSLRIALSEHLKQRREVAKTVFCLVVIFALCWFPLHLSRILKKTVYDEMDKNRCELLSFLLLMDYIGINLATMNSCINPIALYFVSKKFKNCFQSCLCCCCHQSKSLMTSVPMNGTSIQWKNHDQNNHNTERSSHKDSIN
Protocol: (§1) The compounds of Formula I are valuable antagonists of endothelin. […] Compounds of Formula I were tested for their ability to inhibit [^125 I]-ET-1([^125 I]-Endothelin-1) binding in a receptor assay according to the following procedures Doherty, A. M., et al, J. Cardiovascul. Pharmacol. 17(Suppl 7):S59-61 (1991) and Doherty, A. M., et al, Bio. Org. Med. Chem. Lett. in press (1992):
ENDOTHELIN RECEPTOR BINDING ASSAY-A (ERBA-A) INTACT CELL BINDING OF [^125 I]-ET-1
The cells used were rabbit renal artery vascular smooth muscle cells grown in a 48-well dish (1 cm^2) (confluent cells).
The growth media was Dulbeccos Modified Eagles/Ham's F12 which contained 10% fetal bovine serum and antibiotics (penicillin/streptomycin/fungizone).
The assay buffer was a medium 199 containing Hanks salts and 25 mM Hepes buffer (Gibco 380-2350AJ), supplemented with penicillin/streptomycin/fungizone (0.5%) and bovine serum albumin (1 mg/mL).
Amersham radioiodinated endothelin-1 [^125 I]-ET-1 was used at final concentration of 20,000 cpm/0.25 mL (25 pM).
Second, remove the assay buffers, place the dish on ice, and add 150 μL of cold assay buffer described above to each well. Third, add 50 μL each of cold [^125 I]-ET-1 and competing ligand to the solution (at the same time if possible). Next, place dish in a 37° C. water bath for about 2 hours and gently agitate the dish every 15 minutes. Discard the radioactive incubation mixture in the sink and wash wells three times with […] of cold phosphate buffered saline. Last, add […] of 0.25 molar sodium hydroxide, agitate for 1 hour on a rotator, and then transfer the sodium hydroxide extract to gamma counting tubes and count the radioactivity.

[2] = biological target: T2, ETB (rat cerebellar membranes) (Rattus norvegicus, UniProt P21451); assay: Endothelin receptor binding assay-B (ERBA-B), [125I]-ET-1 binding in rat cerebellar membranes; conditions: for Selectivity ETA / ETB from Table I: ERBA-A versus ERBA-B; for IC50: rat cerebellar membranes, [125I]-ET-1 25 pM
T2 construct: thaw one aliquot of frozen rat cerebellar membranes; from tissue; host or cells: rat cerebellar membranes
T2 sequence (P21451 27-442): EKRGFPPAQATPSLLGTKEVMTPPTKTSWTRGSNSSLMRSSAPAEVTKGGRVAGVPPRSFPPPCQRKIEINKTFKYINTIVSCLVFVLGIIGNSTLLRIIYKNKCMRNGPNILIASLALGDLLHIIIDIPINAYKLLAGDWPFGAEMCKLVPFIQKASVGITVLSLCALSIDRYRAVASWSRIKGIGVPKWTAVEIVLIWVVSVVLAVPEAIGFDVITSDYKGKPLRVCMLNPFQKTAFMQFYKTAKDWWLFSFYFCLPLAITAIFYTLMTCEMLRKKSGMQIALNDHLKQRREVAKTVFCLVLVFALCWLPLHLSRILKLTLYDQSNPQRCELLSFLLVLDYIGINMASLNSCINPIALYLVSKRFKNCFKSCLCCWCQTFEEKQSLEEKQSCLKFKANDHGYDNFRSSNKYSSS
Protocol: as §1
ENDOTHELIN RECEPTOR BINDING ASSAY-B (ERBA-B) [^125 I]-ET-1 BINDING IN RAT CEREBELLAR MEMBRANES
The tissue is made up of 20 mM tris(hydroxy-methyl)aminomethane hydrochloride (Trizma) buffer, 2 mM ethylenediaminetetra acetate, 100 μM phenylmethylsulfonyl fluoride.
First, thaw one aliquot of frozen rat cerebellar membranes (2 mg protein in 0.5 mL). Next, add 0.5 mL membrane aliquot to 4.5 mL cold tissue buffer, polytron at 7,500 revolutions per minute for 10 seconds. Finally, dilute tissue suspension 1/100 (0.1 mL suspension+9.9 mL tissue buffer), polytron again, and place ice.
Medium 199 with Hank's salts plus 25 mM Hepes+1 mg/mL bovine serum albumin.
Amersham [^125 I]-ET-1 (aliquots of 2×10^6 cpm per […] aliquot of [^125 I]-ET-1 with 5.2 mL dilution buffer, place on ice until use (final concentration will be 20,000 cpm per tube, or 25 pM).
Add 50 μL each of cold [^125 ]-ET-1 and competing ligand to tubes on ice. Mix in 150 μL of tissue to each tube, vortex briefly, then tap to force all liquids to bottom (total assay volume=250 μL). Then place the tubes in a 37° C. water bath for 2 hours.
Add 2.5 mL cold wash buffer (50 mM Trizma buffer) to each tube, filter, and then wash tube with additional 2.5 mL wash buffer and add to filter. Finally, wash filters with an additional 2.5 mL of cold wash buffer.
Count filters for radioactivity in gamma counter.

[3] = biological target: endothelin receptor (Rat Heart); assay: [125I]-ET-1 receptor binding, Rat Heart
Protocol: as §1, with “Org.” for “Org. Med. Chem. Lett. in press (1992):”

[4] = biological target: endothelin receptor (Human Placenta); assay: [125I]-ET-1 receptor binding, Human Placenta
Protocol: as §1, with “Org.” for “Org. Med. Chem. Lett. in press (1992):”

SMILES: CC(Cc1c[nH]c2ccccc12)(NC(=O)OC1C2CC3CC(C2)CC1C3)C(=O)N(CCc1ccccc1)CC(=O)O (racemic) [Compound 13, (±)-N-[3-(1H-indol-3-yl)-2-methyl-1-oxo-2-[[(tricyclo[3.3.1.1^3,7]dec-2-yloxy)carbonyl]amino]-propyl]-N-(2-phenylethyl)glycine]
inhibition at 10 µM [1]: -0.2%
inhibition at 10 µM [2]: 72.3%
Selectivity ETA / ETB from Table I [2]: selective for ETB
IC50 [2]: 4000 nM

SMILES: C[C@H]1CCCC[C@@H]1OC(=O)N[C@](C)(Cc1c[nH]c2ccccc12)C(=O)N[C@H](CC(=O)O)Cc1ccccc1 (relative stereo) [Compound 1, (1S-trans)-N-[α-methyl-N-[[(2-methyl-cyclohexyl)-oxy]carbonyl]-D-tryptophyl]-L-3-(phenylmethyl)-β-alanine]
IC50 [3]: 9.25 µM
IC50 [4]: 0.72 µM
IC50 [1]: 46000 nM
IC50 [2]: 1500 nM

SMILES: C[C@](Cc1c[nH]c2ccccc12)(NC(=O)OC1C2CC3CC(C2)CC1C3)C(=O)N(CCC(=O)O)CCc1ccccc1 (stereo partly drawn) [Compound 8, (R)-3-[[3-(1H-indol-3-yl) -2-methyl-1-oxo-2-[[(tricyclo[3.3.1.1^3,7]dec-2-yloxy)carbonyl]amino]-propyl](2-phenylethyl)amino]propanoic acid]
inhibition at 10 µM [1]: 25%
IC50 [2]: 910 nM and 1800 nM

SMILES: C[C@](Cc1c[nH]c2ccccc12)(NC(=O)OC1C2CC3CC(C2)CC1C3)C(=O)NC(CC(=O)O)Cc1ccc(N)cc1 (stereo partly drawn) [Compound 9, L-3-[(4-aminophenyl)methyl]-N-[α-methyl-N-[(tricyclo[3.3.1.1^3,7]dec-2-yloxy)carbonyl]-D-tryptophyl]-β-alanine]
ERBA-A % inhibition at 10 μM [1]: 33.5%
ERBA-B % inhibition at 10 μM [2]: 9.4%

SMILES: CC(Cc1c[nH]c2ccccc12)(NC(=O)OC1C2CC3CC(C2)CC1C3)C(=O)NC(CC(=O)O)Cc1ccc([N+](=O)[O-])cc1 (stereo not drawn) [Compound 11, [R-(R*,S*)]-β-[[3-(1H-indol-3-yl)-2-methyl-1-oxo-2-[[(tricyclo[3.3.1.1^3,7]dec-2-yloxy)carbonyl]-amino]propyl]amino]-4-nitrobenzenebutanoicacid]
ERBA-A % inhibition at 10 μM [1]: 47.7%
ERBA-B % inhibition at 10 μM [2]: 51.4%

SMILES: C[C@](Cc1c[nH]c2ccccc12)(NC(=O)OC1C2CC3CC(C2)CC1C3)C(=O)N(CCc1ccccc1)CC(=O)O (stereo partly drawn) [Compound 12, N-[α-methyl-N-[(tricyclo[3.3.1.1^3,7]dec-2-yloxy)carbonyl]-D-tryptophyl]-N-(2-phenylethyl)-glycine]
inhibition at 10 µM [1]: 4.1%
inhibition at 10 µM [2]: 86%
Selectivity ETA / ETB from Table I [2]: selective for ETB
IC50 [2]: 1800 nM

SMILES: C[C@](Cc1c[nH]c2ccccc12)(NC(=O)NC1CCCCC1)C(=O)O [Compound 16, N-[(cyclohexylamino)carbonyl]-α-methyl-D-tryptophan]
IC50 [1]: 1500 nM
IC50 [2]: > 10000 nM

Results, then the molecule that gave them:

IC50 [3]: 9.06 µM
IC50 [4]: 9.88 µM
SMILES: CC(Cc1c[nH]c2ccccc12)(NC(=O)OC1C2CC3CC(C2)CC1C3)C(=O)NC(CSCC(=O)O)Cc1ccccc1 (stereo not drawn) [Compound 2, [R-(R*,S*)]-[[2-[[3-(1H-indol-3-yl)-2-methyl-1-oxo-2-[[(tricyclo[3.3.1.1^3,7]dec-2-yloxy)carbonyl]-amino]propyl]amino]-3-phenylpropyl]thio]acetic acid]

IC50 [3]: 7.91 µM
IC50 [4]: 0.96 µM
SMILES: CC(Cc1c[nH]c2ccccc12)(NC(=O)OC1C2CC3CC(C2)CC1C3)C(=O)NC(CC(=O)O)Cc1ccccc1 (stereo not drawn) [Compound 3, [R-(R*,S*)]-β-[[3-(1H-indol-3-yl)-2-methyl-1-oxo-2-[[(tricyclo[3.3.1.1^3,7]dec-2-yloxy)carbonyl]-amino]propyl]amino]benzenebutanoic acid]

IC50 [3]: 34.5 µM
IC50 [4]: 3.84 µM
SMILES: C[C@](Cc1c[nH]c2ccccc12)(NC(=O)OC1C2CC3CC(C2)CC1C3)C(=O)NC(CC(=O)O)Cc1ccccc1 (stereo partly drawn) [Compound 5, N-[α-methyl-N-[(tricyclo[3.3.1.1^3,7]dec-2-yloxy)carbonyl]-D-tryptophyl]-D-3-(phenylmethyl)-β-alanine]

IC50 [2]: 870 nM
SMILES: CC(Cc1c[nH]c2ccccc12)(NC(=O)OC1C2CC3CC(C2)CC1C3)C(=O)NC(C=CC(=O)O)Cc1ccccc1 (stereo not drawn) [Compound 6, [R-[R*,S*-(E)]]-4-[[3-(1H-indol-3-yl)-2-methyl-1-oxo-2-[[(tricyclo[3.3.1.1^3,7]dec-2-yloxy)carbonyl]-amino]propyl]amino]-5-phenyl-2-pentenoic acid]

IC50 [2]: 870 nM
SMILES: CC(Cc1c[nH]c2ccccc12)(NC(=O)OC1C2CC3CC(C2)CC1C3)C(=O)NC(CCC(=O)O)Cc1ccccc1 (stereo not drawn) [Compound 7, [R-(R*,S*)]-γ-[[3-(1H-indol-3-yl)-2-methyl-1-oxo-2-[[(tricyclo[3.3.1.1^3,7]dec-2-yloxy)carbonyl]-amino]propyl]amino]benzenepentanoic acid]

inhibition at 10 µM [1]: 45%
inhibition at 10 µM [2]: 39.7%
SMILES: Cc1[nH]c2ccccc2c1C[C@@H](NC(=O)OC1C2CC3CC(C2)CC1C3)C(=O)N[C@@H](Cc1ccccc1)C(=O)NCC(=O)O (stereo partly drawn) [Compound 10, N-[2-methyl-N-[(tricyclo[3.3.1.1^3,7]dec-2-yloxy)carbonyl]-D-tryptophyl]-L-phenylalanyl-glycine]

ERBA-A % inhibition at 10 μM [1]: 54.3%
ERBA-B % inhibition at 10 μM [2]: 39.8%
SMILES: CC(Cc1c[nH]c2ccccc12)(NC(=O)OC1C2CC3CC(C2)CC1C3)C(=O)NC(C=CC=CC(=O)O)Cc1ccccc1 (stereo not drawn) [Compound 14, [R-[R*,S*-(E,E)]]-6-[[3-(1H-indol-3-yl)-2-methyl-1-oxo-2-[[(tricyclo[3.3.1.1^3,7]dec-2-yloxy)-carbonyl]amino]propyl]amino]-7-phenyl-2,4-heptadienoic acid]

ERBA-A % inhibition at 10 μM [1]: 51.6%
ERBA-B % inhibition at 10 μM [2]: 36.5%
SMILES: CC(Cc1c[nH]c2ccccc12)(NC(=O)OC1C2CC3CC(C2)CC1C3)C(=O)NC(CCCCC(=O)O)Cc1ccccc1 (stereo not drawn) [Compound 15, [R-(R*,S*)]-ε-[[3-(1H-indol-3-yl)-2-methyl-1-oxo-2-[[(tricyclo[3.3.1.1^3,7]dec-2-yloxy)carbonyl]-amino]propyl]amino]benzeneheptanoic acid]

From US5922681A, “Endothelin antagonists” (Warner-Lambert Company, priority 1992, dated 1999)
